Measured values taken from PubChem BioAssay (NCI).
Where “and” joins values, the source holds several entries; their conditions need not be identical. Equal entries are not always repeated.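 Five concentrations, 48 hours, 96-well plates. GI50 is the concentration that inhibits growth by half. TGI is the concentration that stops growth completely.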

Key:
Assay in all cases: inhibition of tumour cell growth, NCI panel, 48 h
XF 498 CNS = system: XF 498 CNS
HCT-116 colon = system: HCT-116 colon
M19-MEL melanoma = system: M19-MEL melanoma
SK-MEL-5 melanoma = system: SK-MEL-5 melanoma
SNB-19 CNS = system: SNB-19 CNS
LXFL 529 NSCLC = system: LXFL 529 NSCLC
SF-268 CNS = system: SF-268 CNS
SW-620 colon = system: SW-620 colon
NCI-H460 lung = system: NCI-H460 lung
MALME-3M melanoma = system: MALME-3M melanoma
HCT-15 colon = system: HCT-15 colon
KM12 colon = system: KM12 colon
MOLT-4 leukemia = system: MOLT-4 leukemia
HT29 colon = system: HT29 colon
NCI-H226 lung = system: NCI-H226 lung
UO-31 renal = system: UO-31 renal
NCI-H23 lung = system: NCI-H23 lung
OVCAR-3 ovarian = system: OVCAR-3 ovarian
SNB-78 CNS = system: SNB-78 CNS
SK-OV-3 ovarian = system: SK-OV-3 ovarian
EKVX NSCLC = system: EKVX NSCLC
HCC-2998 colon = system: HCC-2998 colon
A549 NSCLC = system: A549 NSCLC
HOP-18 NSCLC = system: HOP-18 NSCLC
SF-295 CNS = system: SF-295 CNS
U251 CNS = system: U251 CNS
DMS 114 small cell lung = system: DMS 114 small cell lung
DMS 273 small cell lung = system: DMS 273 small cell lung
DLD-1 colon = system: DLD-1 colon
LOX IMVI melanoma = system: LOX IMVI melanoma
SNB-75 CNS = system: SNB-75 CNS
ACHN renal = system: ACHN renal
SN12C renal = system: SN12C renal
A498 renal = system: A498 renal
COLO 205 colon = system: COLO 205 colon
786-0 renal = system: 786-0 renal
NCI-H522 lung = system: NCI-H522 lung
HOP-62 NSCLC = system: HOP-62 NSCLC
UACC-62 melanoma = system: UACC-62 melanoma
OVCAR-8 ovarian = system: OVCAR-8 ovarian
RPMI-8226 leukemia = system: RPMI-8226 leukemia
OVCAR-4 ovarian = system: OVCAR-4 ovarian
UACC-257 melanoma = system: UACC-257 melanoma
CAKI-1 renal = system: CAKI-1 renal
SF-539 CNS = system: SF-539 CNS
KM20L2 colon = system: KM20L2 colon
M14 melanoma = system: M14 melanoma
TK-10 renal = system: TK-10 renal
RXF 393 renal = system: RXF 393 renal
SK-MEL-28 melanoma = system: SK-MEL-28 melanoma
HL-60(TB) leukemia = system: HL-60(TB) leukemia
IGROV1 ovarian = system: IGROV1 ovarian
OVCAR-5 ovarian = system: OVCAR-5 ovarian
K-562 leukemia = system: K-562 leukemia
HOP-92 NSCLC = system: HOP-92 NSCLC
CCRF-CEM leukemia = system: CCRF-CEM leukemia
SK-MEL-2 melanoma = system: SK-MEL-2 melanoma
RXF-631 renal = system: RXF-631 renal
SR leukemia = system: SR leukemia

**Q.** What does the source list for O=C1c2ccccc2-c2c3c(cc4ccnc1c24)OCO3?
**A.** TGI (XF 498 CNS): 21.1 µM and 22.1 µM; TGI (HCT-116 colon): 33.3 µM and 33.6 µM; TGI (M19-MEL melanoma): 86.7 µM and 12.9 µM; TGI (SK-MEL-5 melanoma): 8.66 µM; TGI (SNB-19 CNS): > 100 µM and 77.4 µM; TGI (LXFL 529 NSCLC): 51.5 µM and > 100 µM; TGI (SF-268 CNS): 47.1 µM and > 100 µM; TGI (SW-620 colon): 23.4 µM and > 100 µM; TGI (NCI-H460 lung): 19.6 µM and 16.4 µM; TGI (MALME-3M melanoma): 11 µM and 15.6 µM; TGI (HCT-15 colon): 68.3 µM and > 100 µM; TGI (KM12 colon): > 100 µM; TGI (MOLT-4 leukemia): 15.6 µM and > 100 µM; TGI (HT29 colon): > 100 µM and 78 µM; TGI (NCI-H226 lung): 26.2 µM and 24.4 µM; TGI (UO-31 renal): 23.9 µM and 14.8 µM; TGI (NCI-H23 lung): 25.9 µM and 17.4 µM; TGI (OVCAR-3 ovarian): 60.4 µM and 48.9 µM; GI50 (SNB-78 CNS): 14.9 µM and 6.03 µM; TGI (SNB-78 CNS): 66.1 µM and > 100 µM; TGI (SK-OV-3 ovarian): 84.4 µM and > 100 µM; TGI (EKVX NSCLC): 11.7 µM and 35.7 µM; TGI (HCC-2998 colon): 60.1 µM; TGI (A549 NSCLC): 14.3 µM and 17.4 µM; TGI (HOP-18 NSCLC): > 100 µM; TGI (SF-295 CNS): 33.6 µM and 48.4 µM; TGI (U251 CNS): 35.1 µM and > 100 µM; GI50 (DMS 114 small cell lung): 10.1 µM and 4.87 µM; TGI (DMS 114 small cell lung): > 100 µM and 32.4 µM; TGI (DMS 273 small cell lung): 29.4 µM and 19.2 µM; TGI (DLD-1 colon): 24.7 µM and 27.3 µM; TGI (LOX IMVI melanoma): 58.4 µM and 15 µM; TGI (SNB-75 CNS): 26.3 µM and 21.1 µM; TGI (ACHN renal): 24 µM and 29.3 µM; TGI (SN12C renal): > 100 µM; TGI (A498 renal): 12.8 µM; TGI (COLO 205 colon): 82.5 µM and 16 µM; TGI (786-0 renal): 27.2 µM and > 100 µM; GI50 (NCI-H522 lung): 0.885 µM and 4.26 µM; TGI (NCI-H522 lung): 13.3 µM and 15.5 µM; TGI (HOP-62 NSCLC): 21.1 µM; TGI (UACC-62 melanoma): 69.2 µM and 8.07 µM; TGI (OVCAR-8 ovarian): 27.7 µM and 25.5 µM; TGI (RPMI-8226 leukemia): 29.3 µM and 54.4 µM; TGI (OVCAR-4 ovarian): 69.7 µM and > 100 µM; GI50 (UACC-257 melanoma): 5.23 µM and 2.59 µM; TGI (UACC-257 melanoma): 39.2 µM and 11.7 µM; TGI (CAKI-1 renal): 28.1 µM and 15.5 µM; GI50 (SF-539 CNS): 7.97 µM and 3.53 µM; TGI (SF-539 CNS): 53.5 µM and 37.8 µM; TGI (KM20L2 colon): > 100 µM and 60.9 µM; TGI (M14 melanoma): > 100 µM; GI50 (TK-10 renal): 3.02 µM and 10.2 µM; TGI (RXF 393 renal): 18.4 µM and 33 µM; TGI (SK-MEL-28 melanoma): 30.7 µM and > 100 µM; TGI (HL-60(TB) leukemia): 15.6 µM; TGI (IGROV1 ovarian): > 100 µM and 34.3 µM; TGI (OVCAR-5 ovarian): 37.8 µM and 57.6 µM; TGI (K-562 leukemia): > 100 µM and 15 µM; TGI (HOP-92 NSCLC): 39.9 µM and 37.1 µM; TGI (CCRF-CEM leukemia): 39 µM and 20.7 µM; TGI (SK-MEL-2 melanoma): 19.3 µM and 28.5 µM

**Q.** For O=C(C[n+]1ccccc1)N/N=C(/CCC(=O)N(Cc1ccccc1)Cc1ccccc1)CC(=O)c1ccccc1, which TGI (HCT-116 colon) is on record?
**A.** > 100 µM

**Q.** What about the TGI (M19-MEL melanoma) of the same compound?
**A.** > 100 µM

**Q.** And the TGI (SK-MEL-5 melanoma)?
**A.** > 100 µM

**Q.** What about the TGI (SNB-19 CNS) of the same compound?
**A.** > 100 µM

**Q.** What about the TGI (LXFL 529 NSCLC) of the same compound?
**A.** > 100 µM

**Q.** What about the TGI (SF-268 CNS) of the same compound?
**A.** > 100 µM

**Q.** What about the TGI (SW-620 colon) of the same compound?
**A.** > 100 µM

**Q.** And the TGI (NCI-H460 lung)?
**A.** > 100 µM

**Q.** What about the TGI (MALME-3M melanoma) of the same compound?
**A.** > 100 µM

**Q.** What about the TGI (HCT-15 colon) of the same compound?
**A.** > 100 µM

**Q.** And the TGI (KM12 colon)?
**A.** > 100 µM

**Q.** And the TGI (MOLT-4 leukemia)?
**A.** > 100 µM

**Q.** What about the TGI (HT29 colon) of the same compound?
**A.** > 100 µM

**Q.** And the TGI (NCI-H226 lung)?
**A.** > 100 µM

**Q.** What about the TGI (UO-31 renal) of the same compound?
**A.** > 100 µM

**Q.** What about the TGI (NCI-H23 lung) of the same compound?
**A.** > 100 µM

**Q.** And the TGI (OVCAR-3 ovarian)?
**A.** > 100 µM

**Q.** And the TGI (SNB-78 CNS)?
**A.** > 100 µM

**Q.** And the TGI (EKVX NSCLC)?
**A.** > 100 µM

**Q.** What about the TGI (HCC-2998 colon) of the same compound?
**A.** > 100 µM

**Q.** What about the TGI (A549 NSCLC) of the same compound?
**A.** > 100 µM

**Q.** And the TGI (RXF-631 renal)?
**A.** > 100 µM

**Q.** And the TGI (HOP-18 NSCLC)?
**A.** > 100 µM

**Q.** What about the TGI (SF-295 CNS) of the same compound?
**A.** > 100 µM

**Q.** And the TGI (U251 CNS)?
**A.** > 100 µM

**Q.** What about the TGI (DMS 114 small cell lung) of the same compound?
**A.** > 100 µM

**Q.** What about the TGI (DMS 273 small cell lung) of the same compound?
**A.** > 100 µM

**Q.** And the TGI (SR leukemia)?
**A.** > 100 µM

**Q.** And the TGI (DLD-1 colon)?
**A.** > 100 µM

**Q.** What about the TGI (LOX IMVI melanoma) of the same compound?
**A.** > 100 µM

**Q.** What about the TGI (SNB-75 CNS) of the same compound?
**A.** > 100 µM

**Q.** And the TGI (ACHN renal)?
**A.** > 100 µM

**Q.** And the TGI (SN12C renal)?
**A.** > 100 µM

**Q.** And the TGI (A498 renal)?
**A.** > 100 µM

**Q.** And the TGI (COLO 205 colon)?
**A.** > 100 µM

**Q.** What about the TGI (786-0 renal) of the same compound?
**A.** > 100 µM

**Q.** And the TGI (NCI-H522 lung)?
**A.** > 100 µM

**Q.** And the TGI (HOP-62 NSCLC)?
**A.** > 100 µM

**Q.** What about the TGI (UACC-62 melanoma) of the same compound?
**A.** > 100 µM

**Q.** And the TGI (OVCAR-8 ovarian)?
**A.** > 100 µM

**Q.** And the TGI (RPMI-8226 leukemia)?
**A.** > 100 µM

**Q.** And the TGI (OVCAR-4 ovarian)?
**A.** > 100 µM

**Q.** And the TGI (UACC-257 melanoma)?
**A.** > 100 µM

**Q.** What about the TGI (CAKI-1 renal) of the same compound?
**A.** > 100 µM

**Q.** And the TGI (SF-539 CNS)?
**A.** > 100 µM

**Q.** What about the TGI (KM20L2 colon) of the same compound?
**A.** > 100 µM

**Q.** What about the TGI (M14 melanoma) of the same compound?
**A.** > 100 µM

**Q.** And the TGI (TK-10 renal)?
**A.** > 100 µM

**Q.** What about the TGI (RXF 393 renal) of the same compound?
**A.** > 100 µM

**Q.** And the TGI (SK-MEL-28 melanoma)?
**A.** > 100 µM

**Q.** What about the TGI (HL-60(TB) leukemia) of the same compound?
**A.** > 100 µM

**Q.** And the TGI (IGROV1 ovarian)?
**A.** > 100 µM

**Q.** What about the TGI (OVCAR-5 ovarian) of the same compound?
**A.** > 100 µM

**Q.** What about the TGI (K-562 leukemia) of the same compound?
**A.** > 100 µM

**Q.** What about the TGI (HOP-92 NSCLC) of the same compound?
**A.** > 100 µM

**Q.** And the TGI (CCRF-CEM leukemia)?
**A.** > 100 µM

**Q.** And the TGI (SK-MEL-2 melanoma)?
**A.** > 100 µM
